# Assay results from US10045984B2, “Combination therapy” (priority 2008, dated 2018).
# Tests used:
# [1] = tested on: Influenza A, B and Rhino virus; experiment: Group B randomized double blind trial in uncomplicated viral upper respiratory tract infection, with case reports; type: in vivo, human; settings: for clinical state: influenza type B; for clinical state at day 5 after starting treatment: n=5 per group
# Source text: RT-PCR (reverse transcriptase-PCR) was used for subtyping and for detection of rhinovirus. RT-PCR is done on swabs. In the case of the patient groups, RT-PCR determined the presence of subtypes influenza H3, rhino virus and RSV. IFA and RT-PCR was repeated after treatment to ensure viral eradication from the patient.
# Group B patients included 20 patients, aged 19 years to 57 years, 14 men and 6 women, with influenza but uncomplicated upper airway infection. […] The viruses identified were Influenza A, B and Rhino virus.
# On day 3-5 of the illness (influenza) they received either a zinc/trimethoprim mixture, zinc, trimethoprim alone or vitamin C alone in a randomized double blind trial. The subjects were reviewed at 2 and 5 days after starting treatment.
# The Tri-Z dose ranged between 100 mg (82 mg Tri and 18 mg zinc) to 200 mg (164 mg Tri and 36 mg zinc) twice daily. Trimethoprim only was administered in quantities of between 100 mg and 200 mg twice daily. Zinc only was administered in quantities of 50 mg three times daily. Vitamin C was administered in 1 g quantities twice daily.
# Points on the graph shown in FIG. 6 are group means (for n=5) which highlights the difference in illness duration. […] Repeat IFA and RT-PCR tests were negative by day 2.
# (i) person presented with headache, no photophobia, body ache, feeling tired and lethargic, blocked runny nose, dry throat and feeling hot for the last 4 days. Temperature was 38.5 C, respiratory rate 18/min, heart rate 75/min regular, BP 115/70 mmHg, clear nasal discharge, blood shot eyes, clear throat. Chest was clear with normal breath sounds. No cervical lymph nodes.
# Nasal aspirate and throat swab was taken for virus and bacteria. […] Cultures were negative for bacterial growth at 48 and 72 hours.
# They were commenced on the zinc/trimethoprim mixture twice daily (initial dose 200 mg of trimethoprim and 100 mg zinc sulphate for first dose then reduced to 100 mg of trimethoprim and 50 mg of zinc sulphate given simultaneously on an empty stomach) for 5 days.
# (ii) person presented with body ache, generally feeling tired, blocked runny nose, sore eyes, dry throat, headache and feeling hot for the last 4 days. Their temperature was 38 C. Their chest was clear with normal breath sounds. Respiratory rate 16/min, heart rate 84/min regular, BP 135/78 mmhg. Nasal aspirate and throat swabs was taken for virus and bacteria.
# Bacterial culture at 48 and 72 hours were negative.
# (iii) person presented with feeling hot, blocked nose that is runny, headache, body ache, dry cough, sore eyes for last 4 days.
# Temperature was 38.5 C, heart rate 60/min, respiratory rate 16/min, BP 120/70 mmHg, chest clear with normal breath sounds, no lymphadenopathy, conjunctival congestion, throat clear.
# Nasal aspirate and throat swab were taken for virus and bacteria. They were started on Trimethoprim 200 mg twice daily for 5 days.
# viral replication = settings: cited from earlier work
# [2] = case (ii) person, day 5 after treatment
structure (smiles),measurement,setting,value
O=S(=O)([O-])[O-].[Zn+2] [zinc sulphate],repeat viral test,"[1]; case (ii) person, 2 days after treatment",influenza type B
same,control of symptoms,[1]; [2],ineffective
same,nasal aspirate viral test,[1]; [2],influenza type B
same,clinical state,"[1]; case (ii) person, 100 mg twice daily, 2 days after treatment",the same
same,day of the illness of return to work,"[1]; case (ii) person, still feeling unwell",14 days
"COc1cc(Cc2cnc(N)nc2N)cc(OC)c1OC [trimethoprim, 5-(3,4,5-trimethoxybenzyl)pyrimidine-2,4-diamine]",nasal aspirate viral test,"[1]; case (iii) person, day 5 of treatment",influenza type B
same,temperature,"[1]; case (iii) person, day 5 of treatment, 38.5 C before",37.8 C
same,clinical state,"[1]; case (iii) person, 200 mg twice daily, 2 days later",the same
same,day of the illness when recovery started,"[1]; case (iii) person, well enough to go back to work",14 days
same,clinical state at day 5 after starting treatment,[1],not back to normal
O=C1O[C@H]([C@@H](O)CO)C(O)=C1O [vitamin C],clinical state at day 5 after starting treatment,[1],not back to normal
[Zn] [zinc],clinical state at day 5 after starting treatment,[1],not back to normal
same,concentration in a subject that affects viral replication,viral replication,0.05 mMolar
